Measured values: patent publication US20110245323A1, “RIG-Like Helicase Innate Immunity Inhibits VEGF-Induced Tissue Responses” (Yale University, priority 2006, published 2011)
“Also recorded” adds a separate entry of the source.

Tests used:
Assay type in all cases: in vivo, mouse
[1] = system: CC10-rtTA-VEGF165 transgenic mice; experiment: VEGF-induced pulmonary hemorrhage in BAL fluids; settings: Tg+ mice, pretreatment, vs vehicle
Experimental: The CC10-rtTA-VEGF165 transgenic mice used in this study were generated and used as described previously (Lee et al., 2004, Nature Medicine 10:1095-103), which reference is incorporated herein in its entirety. These animals were housed under barrier conditions in the animal facility at Yale University School of Medicine. In these experiments 6-8 week old transgenic (Tg+) animals and their transgene negative littermate controls (Tg−) were randomized to receive water with doxycycline (dox) (0.5 mg/ml) or normal water. Two weeks later they were sacrificed and the VEGF-induced phenotype was evaluated as described below (Lee et al., 2004, Nature Medicine 10:1095-103). […]
Mice were sacrificed using intraperitoneal ketamine/xylazine injection and the trachea was cannulated and perfused with two 0.9 nil aliquots of cold saline. The cellular contents and BAL fluid were separated by centrifugation, the BAL cell number was quantitated and cell differential was assessed. […]
The lungs were removed en bloc as described elsewhere herein, inflated at 25 cm pressure with PBS containing 0.5% low melting point agarose gel, fixed in Streck solution (Streck Laboratories, La Vista, Nebr.), embedded in paraffin, sectioned and stained. […] Pulmonary hemorrhage was evaluated by quantitating BAL red blood cell number with a Coulter counter (Beckman Coulter).

[2] = system: KC/CXCL1 and MIP-2/CXCL14; experiment: BAL neutrophil chemotactic chemokines by ELISA; settings: Tg+ mice, pretreatment, 2 weeks
Experimental: ELISA and activity assay kits for IFNa and IFNβ analysis were purchased from PBL Biomedical Laboratories (Piscataway, N.J.). ELISAs for eotaxin/CCL11, MCP-1/CCL2, KC/CXCL1 and MIP-2/CXCL14 were obtained from R&D Systems (Minneapolis, Minn. USA). Each was performed according to the manufacturer's instructions.

[3] = system: CC10-rtTA-VEGF165 transgenic mice; experiment: VEGF-induced vascular permeability (Evans blue dye extravasation, lung wet to dry weight ratio, BAL protein)
Experimental: (§1) To define the effects of Poly(I:C) a number of protocols were employed. In most experiments, a pretreatment-2 week protocol was employed. In these experiments, WT and Tg+ mice were treated with Poly(I:C) (30 μg in 50 lambda unless otherwise indicated; Amersham Biosciences, N.J.) or vehicle control via nasal aspiration and transgene activation was accomplished via the administration of dox (0.5 mg/ml) in the animal's drinking water 24 hours later. The Poly(I:C) was administered every other day and the dox was administered continuously for up to 2 weeks.
(§2) Lastly, in selected experiments post-transgene activation protocols were employed. In these experiments dox was administered for 2 days or 2 weeks. The Poly(I:C) was then administered via intranasal aspiration every other day for 2 weeks as disclosed elsewhere herein. In selected pre-treatment and post-transgene activation experiments, unmethylated CpG (CpG-B) (Keck Center, Yale University) was also employed at similar doses. At the end of these intervals, assessments of angiogenesis (anti-CD31 immunohistochemistry), vascular permeability (Evan's blue dye extravasation, wet to dry lung weight measurements, BAL protein concentration), BAL and tissue inflammatory cell infiltration and mucus metaplasia (periodic acid-Schiff (PAS) staining, MUC5AC immunoblotting) were undertaken. In all cases experiments were designed to compare Tg− and Tg+ mice on normal water and Tg− and Tg+ mice on dox water.
Lungs were excised en bloc and extrapulmonary tissues were removed. They were then weighed, placed in a desiccating oven at 65° C. for 48 hours and reweighed.
In some instances, animal lungs were excised en bloc after intravascular perfusion and weighed. They were then put into a SpeedVac system (ThermoSavant; Milford, Mass.), desiccated at 60° C. overnight, and reweighed.
Evans blue dye (EBD) (Sigma-Aldrich Inc.) in 0.9% saline at a concentration of 5 mg/ml was used to assess plasma leakage as previously described (Lee et al., 2004, Nat Med 10:1095-1103). The results are expressed as the ratio of the EBD absorbance at 620 nm of paired lung homogenates and serum.
BAL was undertaken and protein levels were assessed using the Dc Protein Assay Kit (Bio-Rad Laboratories, Hercules, Calif.) according to manufacturer's instructions. The optical density of each sample was read at 750 nm wave length with a Smartspec 3000 Spectrophotometer (Bio-Rad Laboratories).

[4] = system: CC10-rtTA-VEGF165 transgenic mice; experiment: BAL inflammatory cell recovery, VEGF-induced inflammation
Experimental: The CC10-rtTA-VEGF165 transgenic mice used in this study were generated and used as described previously (Lee et al., 2004, Nature Medicine 10:1095-103), which reference is incorporated herein in its entirety. These animals were housed under barrier conditions in the animal facility at Yale University School of Medicine. In these experiments 6-8 week old transgenic (Tg+) animals and their transgene negative littermate controls (Tg−) were randomized to receive water with doxycycline (dox) (0.5 mg/ml) or normal water. Two weeks later they were sacrificed and the VEGF-induced phenotype was evaluated as described below (Lee et al., 2004, Nature Medicine 10:1095-103).
To define the effects of these agents on the tissue responses induced by VEGF, two experimental procedures were used. In the first, a pretreatment protocol was used. In these experiments the noted innate immunity agonist ([…] unless otherwise indicated) or its vehicle control (PBS) were administered intranasally and aspirated into the lungs of randomized Tg+ and Tg− mice starting one day before the Dox water treatment. The doses were administered to the mice every other day during the 2 week doxyxycline (dox) treatment interval.
To determine if the innate immunity agonists altered established VEGF-induced tissue responses, a “post treatment” protocol was used in selected experiments. In these experiments the innate immunity agonist was administered 2 days or 14 days after the doxycycline and VEGF-induced responses were evaluated 2 weeks later.
as §1, §2
Mice were sacrificed using intraperitoneal ketamine/xylazine injection and the trachea was cannulated and perfused with two 0.9 nil aliquots of cold saline. The cellular contents and BAL fluid were separated by centrifugation, the BAL cell number was quantitated and cell differential was assessed. The BAL fluid was stored in aliquots at −80° C.

transgenic hVEGF = experiment: BAL levels of transgenic VEGF by ELISA; settings: Tg+ mice, Poly(I:C) vs vehicle; doses <30 μg
Excerpt: WT and CC10-rtTA-VEGF mice were used in these studies. The latter used the Clara cell 10-kDa protein (CC10) promoter and two transgenic constructs to target VEGF to the lung in an externally regulatable fashion. The human (h) VEGF165 transgene in these mice was activated via the administration of doxycycline (dox) as previously described (Lee et al., 2004, Nat Med 10:1095-1103). In the wild type (WT) mice on normal or dox water and the Tg+ mice on normal water, hVEGF levels in bronchoalveolar lavage fluids (BAL) were <10 pg/ml. Increased levels of BAL VEGF were noted within 24 hours and steady state levels between 0.5 and 1.2 ng/ml were seen after 1 week of dox administration (FIG. 28).
as §1
ELISA assay kits for VEGF and IL-13 were purchased from R&D Systems (Minneapolis, Minn.).

[5] = Tg+ mice, pretreatment, vs vehicle
[6] = pretreatment, highest dose tested

polyinosinic-polycytidylic acid [Poly(I:C)]
VEGF-induced bleeding / hemorrhage in BAL fluids [1]: significantly decreased | levels of KC/CXCL1 and MIP-2/CXCL14 in BAL [2]: significant increases | Evan's blue dye leakage in lungs [3, 5]: lower levels | VEGF-induced permeability alterations (Evans blue dye extravasation, lung wet to dry weight ratios, BAL protein) [3, 5]: inhibited | levels of protein in BAL fluids [3, 5]: lower levels | VEGF-induced vascular permeability alterations, delayed administration ([3]; given 48 hours or 14 days after dox-induced transgene activation): significant inhibition | lowest dose with significant inhibition of VEGF-induced permeability alterations ([3]; pretreatment): 5 µg | dose with maximal inhibition of VEGF-induced permeability alterations [3, 6]: 30 µg | VEGF-induced inflammation, delayed administration ([4]; Tg+ mice, given 2 days (48 hours) or 14 days after transgene activation with dox): significant decrease; also recorded: significant regulation | recovery of macrophages, eosinophils and lymphocytes during BAL ([4]; Tg+ mice, pretreatment, p<0.05): significantly decreased | BAL neutrophil accumulation [4, 5]: increased | total recovery of inflammatory cells during BAL / VEGF-induced inflammation [4, 5]: markedly decreased; also recorded: inhibited | Total cells (×10^4) ([4]; VEGF-induced tissue responses, TLR agonist administration, PBS control 50): 22 ×10^4 | lowest dose with significant alterations of VEGF-induced inflammation ([4]; pretreatment): 5 µg | dose with maximal regulation of VEGF-induced inflammation [4, 6]: 30 µg | levels of production of transgenic VEGF in BAL fluids (transgenic hVEGF): did not alter
